The source of these data is patent publication US20060269482A1 (priority 2005, published 2006).

The test system of one data set is MTLn3 cells. Put plainly: cell growth inhibition in rat tumor cell line. Type of data set: cell-based.
Data set [1] can be described thus: Plasma and tumor exposures after a single oral dose. The format is in vivo, rat. As to the method:
Female Fischer rats obtained from Charles River Laboratories were used when they were ˜13-15 weeks old and weighed ˜150 grams. All animals were examined prior to the initiation of studies to ensure that they were healthy and acclimated to the laboratory environment. Autoclaved water and irradiated food were provided ad libitum, and the animals were maintained in a 12 hour light and dark cycle.
The test compound COMPOUND A, [4-amino-2-(1-methanesulfonylpiperidin-4-ylamino) pyrimidin-5-yl]-(2,3-difluoro-6-methoxyphenyl)methanone, was synthesized by Discovery Chemistry, Hoffmann-La Roche Inc. COMPOUND A was formulated as a suspension in 1% Klucel LF with 0.1% Tween 80 for oral injection. Compound was stored at 4° C. and vortexed immediately prior to administration.
(§1) The dose selected was 80 mg/kg, determined to be an efficacious dose in this animal model. Tumor growth inhibition in the MTLn3 xenograft model after 2 to 3 weeks of oral dosing at 80 mg/kg once weekly averaged 90% with 2/10 complete regressions. COMPOUND A was dosed on day 10 post implantation of cells, at which time the tumors were 100-200 mm^3 in size. In this pharmacokinetic/pharmacodynamic experiment, plasma and tumors were collected at 1, 2, 6, 24 and 72 hours post dosing of a single oral dose of COMPOUND A. Tumors were removed and immediately snap frozen in liquid nitrogen and stored at −80° C. until drug concentration analysis. Untreated and vehicle treated control groups were included in the analysis. Concentrations of COMPOUND A in plasma and tumors were determined in the same three animals per time point. Whole blood was also collected for analysis of Rb phosphorylation. Peripheral blood mononuclear cells (PBMCs) were isolated, stimulated ex vivo with mitogen and analyzed by Western blot as described below.
(§2) In a second pharmacodynamic study, plasma concentrations of COMPOUND A were similarly analyzed as described above, and Rb phosphorylation in both PBMCs and tumor xenografts treated with a single oral dose of COMPOUND A was examined.
After a single oral dose of 80 mg/kg, plasma and tumor tissues show a similar concentration time profile of COMPOUND A. Maximum concentrations in both plasma and tumor tissue were observed 1 hr post dose. The concentrations in the tumor samples taken from the same animals were approximately 50% of the plasma concentration and at 24 hrs tumor drug levels (164±28 ng/g) approximated plasma exposures at 24 hours (250±74 ng/ml) (FIG. 7). Drug levels in plasma and tumor tissue were measurable up to 24 hrs after dosing in all the animals in PD 664 (3 rats per time point). […] Overall the plasma data seem fairly predictive for tumor concentrations particularly since the extraction of drug from the tumor samples might be less than complete. No drug was detectable in the vehicle group.
Similarly in PD 675, after a single 80 mg/kg oral dose of COMPOUND A, drug was measurable in all the animals up to 6 hrs (339±88 ng/ml) and in ⅔ animals 24 hr and 48 hr after dosing. Mean plasma concentrations were steady from 1-24 hr. No drug was detectable in the vehicle group.

In data set [2] the test system is Rb phosphorylation in MTLn3 tumors. Kind of data set: Rb phosphorylation in rat MTLn3 tumor xenografts after a single oral dose. Type of data set: in vivo. The following applies: single oral dose 80 mg/kg, Western blot. As to the method: as §1, with “Untreated and vehicle treated control groups were included in the analysis.” left out, “Whole blood was also collected for analysis of Rb phosphorylation.” left out
as §2
PBMCs were collected by transferring the cells, including attached cells and those in suspension, into 50 ml tubes. […] For Western blotting, total Rb was detected using antibody from Pharmingen (BD Bioscience, San Diego, Calif.) at a dilution of 1:2000. […]
Background: In western blotting, separated proteins are transferred to a membrane and probed.

[3] abbreviates: single oral dose 80 mg/kg, rat, PD 664.

Like-named read-outs stand apart in the source and are kept apart here.

A word on the IC50: it is the concentration at which inhibition is half-maximal. Lower therefore signals greater potency. The IC90 is the concentration needed for an effect of 90%. In the data set on MTLn3 cells, `COc1ccc(F)c(F)c1C(=O)c1cnc(NC2CCN(S(C)(=O)=O)CC2)nc1N` [COMPOUND A, [4-amino-2-(1-methanesulfonylpiperidin-4-ylamino)pyrimidin-5-yl]-(2,3-difluoro-6-methoxyphenyl)methanone] gave an IC50 of 0.17 µM and an IC90 of 0.24 µM. Besides, in data set [1] (female, Fischer, rat, plasma, single 80 mg/kg oral dose, PD 675, 6 hrs), the concentration at 6 h stood at 0.339 ± 0.088 µg/mL. Further, in data set [1] (female, Fischer, rat, plasma, single oral dose 80 mg/kg, 24 hours, PD 664, read-out: Plasma exposure at 24 hours), the concentration at 24 h is 0.25 ± 0.074 µg/mL. In data set [1] (female, Fischer, rat, plasma, single oral dose 80 mg/kg, PD 664, one out of three animals measurable), this compound returned a concentration at 72 h of at least 0.0125 µg/mL. Also, in data set [1] (female, Fischer, rat, tumor / plasma, single oral dose 80 mg/kg, same animals, PD 664, read-out: Tumor concentration as percent of plasma concentration), the Kp was about 0.5. Further, the concentration at 24 h in data set [1] (female, Fischer, rat, tumor, single oral dose 80 mg/kg, 24 hrs, PD 664, read-out: Tumor drug level at 24 hrs) stood at 164 ± 28 ng/g. Also, the “Time up to which drug levels in plasma and tumor tissue were measurable in all animals” value in data set [1] (single oral dose 80 mg/kg, PD 664, 3 rats per time point) is reported as “up to 24 hrs”. Further, in data set [1] (setting [3]), the “Time of maximum concentration in plasma” value turned out to be 1 h and the “Time of maximum concentration in tumor tissue” value was 1 h. In addition, the “Rb phosphorylation (serine 807/811) in tumor xenografts” value in data set [2] was “reduction in phosphorylation of Rb”.
